In ChEMBL document CHEMBL1201862, “PubChem BioAssay data set” (2004):
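Dose response: 5 concentrations. Exposure: 48 h. Format: 96-well plates. Endpoint: linear interpolation; highest concentration if not reached. Here, GI50 denotes the concentration required for 50% inhibition of growth.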 The source made the active and inactive calls. Rule as the data show it: active = GI50 up to about 1.1 µM and inactive = higher.

What was measured:
Test in all cases: NCI-60 cell line screen, 48 h
[1] = system: 786-0
[2] = system: A498
[3] = system: A549
[4] = system: ACHN
[5] = system: CAKI-1
[6] = system: CCRF-CEM
[7] = system: COLO 205
[8] = system: DLD-1
[9] = system: DMS-114
[10] = system: DMS-273
[11] = system: EKVX
[12] = system: HCC 2998
[13] = system: HCT-116
[14] = system: HCT-15
[15] = system: HL-60
[16] = system: HOP-18
[17] = system: HOP-62
[18] = system: HOP-92
[19] = system: HT-29
[20] = system: IGROV-1
[21] = system: KM-20L2
[22] = system: KM12
[23] = system: LOX IMVI
[24] = system: LXFL 529
[25] = system: M14
[26] = system: M19-MEL
[27] = system: MOLT-4
[28] = system: Malme-3M
[29] = system: NCI-H226
[30] = system: NCI-H460
[31] = system: NCI-H522
[32] = system: OVCAR-3
[33] = system: OVCAR-4
[34] = system: OVCAR-5
[35] = system: OVCAR-8
[36] = system: RPMI-8226
[37] = system: RXF 393
[38] = system: SF-268
[39] = system: SF-295
[40] = system: SF-539
[41] = system: SK-MEL-28
[42] = system: SK-MEL-5
[43] = system: SK-OV-3
[44] = system: SN12C
[45] = system: SNB-19
[46] = system: SNB-75
[47] = system: SNB-78
[48] = system: SR
[49] = system: SW-620
[50] = system: TK-10
[51] = system: U-251
[52] = system: UACC-257
[53] = system: UACC-62

C[C@]12CCC(=O)C(OC(=O)c3ccc([N+](=O)[O-])cc3)=C1CCC2=O
GI50 [1]: > 100 µM (inactive)
GI50 [2]: > 100 µM (inactive)
GI50 [3]: > 100 µM (inactive)
GI50 [4]: > 100 µM (inactive)
GI50 [5]: > 100 µM (inactive)
GI50 [6]: > 100 µM (inactive)
GI50 [7]: 98.6 µM (inactive)
GI50 [8]: > 100 µM (inactive)
GI50 [9]: > 100 µM (inactive)
GI50 [10]: > 100 µM (inactive)
GI50 [11]: > 100 µM (inactive)
GI50 [12]: > 100 µM (inactive)
GI50 [13]: > 100 µM (inactive)
GI50 [14]: > 100 µM
GI50 [15]: > 100 µM (inactive)
GI50 [16]: > 100 µM (inactive)
GI50 [17]: > 100 µM (inactive)
GI50 [18]: > 100 µM (inactive)
GI50 [19]: > 100 µM (inactive)
GI50 [20]: > 100 µM (inactive)
GI50 [21]: > 100 µM (inactive)
GI50 [22]: > 100 µM (inactive)
GI50 [23]: > 100 µM (inactive)
GI50 [24]: > 100 µM (inactive)
GI50 [25]: > 100 µM (inactive)
GI50 [26]: > 100 µM (inactive)
GI50 [27]: > 100 µM (inactive)
GI50 [28]: > 100 µM (inactive)
GI50 [29]: 95.5 µM (inactive)
GI50 [30]: > 100 µM (inactive)
GI50 [31]: > 100 µM (inactive)
GI50 [32]: > 100 µM (inactive)
GI50 [33]: > 100 µM (inactive)
GI50 [34]: > 100 µM (inactive)
GI50 [35]: > 100 µM (inactive)
GI50 [36]: > 100 µM (inactive)
GI50 [37]: > 100 µM (inactive)
GI50 [38]: > 100 µM (inactive)
GI50 [39]: > 100 µM (inactive)
GI50 [40]: > 100 µM (inactive)
GI50 [41]: > 100 µM (inactive)
GI50 [42]: > 100 µM (inactive)
GI50 [43]: > 100 µM (inactive)
GI50 [44]: > 100 µM (inactive)
GI50 [45]: > 100 µM (inactive)
GI50 [46]: > 100 µM (inactive)
GI50 [47]: > 100 µM (inactive)
GI50 [48]: > 100 µM (inactive)
GI50 [49]: > 100 µM (inactive)
GI50 [50]: > 100 µM (inactive)
GI50 [51]: > 100 µM (inactive)
GI50 [52]: > 100 µM (inactive)
GI50 [53]: > 100 µM (inactive)
